According to US9163063B2, “Peptides and nanoparticles for therapeutic and diagnostic applications” (Trustees of Dartmouth College, priority 2009, dated 2015):
Peptide text beside a SMILES is read from it. * marks the point of attachment. Benzoyl(4-Br) = O=C(c1ccc(Br)cc1)*; Myristoyl = CCCCCCCCCCCCCC(=O)*

Columns and labels:
[1] = system: EGFR; assay: Western blot of EGFR in AsPC1 cells; assay type: cell-based, human; conditions: 48 hours; 50, 100, 200 μM
Protocol: (§1) AsPC1, MDA231-WT cells were grown in a 100 mm tissue culture dish in RPMI medium containing serum, L-glutamine and antibiotics. At 60% confluency cells were treated with GIPC inhibitor peptides in a dose dependent and time dependent manner. Untreated and GIPC inhibitor peptide-treated AsPC1 and MDA231-WT cells were washed thrice with 10 ml of cold PBS, lysed with ice-cold RIPA buffer along with halt and PIC incubated on ice for 10 min, and centrifuged at 4° C. for 10 min. The expression of IGF-1R and EGFR protein was determined in untreated and peptides treated AsPC1 and MD231A cells by Western blot analysis according to standard protocols. Briefly, protein concentration in the cell lysates was measured using Bradford assay kit (Bio-rad). The proteins were loaded on a 10% SDS-PAGE gel for separation and transferred to a membrane. […]
(§2) Since GIPC association with IGF-1R is important for IGF-1R stability, the effects of CR1023 and CR1166 on the expression of both IGF-1R and EGFR were investigated. The levels of EGFR and IGF-1R in pancreatic cancer cells (AsPC1) and breast cancer cells (MDA-MB-231A-WT) were analyzed using Western blot analysis after treatment with GIPC inhibitor peptides or control peptides for 48 hours at different concentrations (50 μM, 100 μM and 200 μM) (FIG. 21, A and B). […]

[2] = system: IGF-1R; assay: Western blot of IGF-1R in MDA-MB-231A-WT cells; assay type: cell-based; conditions: 48 hours; 50, 100, 200 μM
Protocol: as §1, §2

[3] = biological target: T1, co-localization of GIPC and IGF-1R (Homo sapiens, UniProt O14908); assay: Duolink II co-localization of GIPC and IGF-1R in AsPC1 cells; assay type: cell-based
T1 construct: endogenous in cells; host or cells: AsPC1
T1 sequence (O14908 1-333): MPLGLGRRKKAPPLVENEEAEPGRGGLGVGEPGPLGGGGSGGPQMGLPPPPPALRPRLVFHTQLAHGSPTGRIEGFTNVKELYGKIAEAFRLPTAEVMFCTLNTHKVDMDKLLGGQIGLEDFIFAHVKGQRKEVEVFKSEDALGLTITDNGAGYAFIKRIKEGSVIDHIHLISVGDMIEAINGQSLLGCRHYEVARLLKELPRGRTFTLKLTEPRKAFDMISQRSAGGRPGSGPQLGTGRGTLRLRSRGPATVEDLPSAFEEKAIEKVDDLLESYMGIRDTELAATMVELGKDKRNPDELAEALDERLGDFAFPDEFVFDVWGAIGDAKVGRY
Protocol: Co-localization experiments were performed using a Duolink II Fluorescence kit to visualize the co-localization of GIPC and IGF-1R in control untreated AsPC1 cells (FIG. 23). Red fluorescence indicated the co-localization of GIPC and IGF-1R in AsPC1 cells.

[4] = system: AsPC1 cells; assay: MTS cell viability assay (Example 7); assay type: cell-based, human; conditions: for reduced cell viability observed: 50-200 μM
Protocol: (§3) To assess the cytotoxic and cell viability effects of GIPC inhibitor peptides, an MTS assay was conducted in pancreatic cancer cells (AsPC1) and breast cancer cells (MDA-MB-231-WT) using CR1023 and CR1166, as well as control peptides (CR1162, CR1164, CR2055 and CR2059) in a dose dependent manner (50-200 μM).

[5] = biological target: T2, interaction between IGF-1R and GIPC (Homo sapiens, UniProt O14908); assay: Immunoprecipitation for GIPC, immunoblot against IGF-IR in AsPC1 cells; assay type: cell-based; conditions: for interaction between IGF-1R and GIPC: IP with GIPC antibody (N-19); for protein levels of IGF-IR: in vitro model
T2 construct: endogenous in cells; host or cells: AsPC1
T2 sequence (O14908 1-333): T1 sequence (O14908 1-333)
Protocol: AsPC1 cells were treated and lysate was collected in RIPA buffer. After immunoprecipitation with a GIPC antibody (N-19), western blot analysis was performed.

[6] = system: EGFR; assay: Western blot of EGFR in MDA-MB-231A-WT cells; assay type: cell-based; conditions: 48 hours; 50, 100, 200 μM
Protocol: as §1, §2

[7] = system: AsPC1 cells expressing GFP/luciferase; assay: Pancreatic tumor model, intratumoral injections; assay type: in vivo, female SCID mice; conditions: for pancreatic tumor growth over time compared to control peptides: intratumoral, alternate days, one month
Protocol: (§4) In vivo tumor model experiments using female SCID mice were performed to test the effectiveness of GIPC inhibitor peptides. The pancreatic tumor model was established by injecting 5×10^6 AsPC1 cells expressing GFP/luciferase resuspended in 50 μL of sterile PBS into the mouse right flank. Similarly, the breast tumor growth model was established in mice by injecting 2×10^6 MD-MBA-231-WT cells resuspended in 50 μL of sterile PBS into the mammary fat pad of the female SCID mice. When tumors volumes reached 50-100 mm^3, the GIPC inhibitor peptides and controls were intratumorally injected on alternate days over a period of one month. In order to monitor the pancreatic tumor burden, the mice were non-invasively imaged using the IVIS 200 Bioluminescence Imaging system (Xenon Corp.) before sacrificing. After bioluminescence imaging, the effect of the peptides on tumor growth (weight and volume) and EGFR and IGF-1R expression from tumors collected from different groups were examined. Tumors collected after sacrificing the SCID mice were measured by digital slide calipers using the (½ab^2) formula.

[8] = system: MDA-MB-231-WT cells; assay: Apoptosis assay (annexin/PI); assay type: cell-based; conditions: for apoptosis induced: within 48 h; for induction of apoptosis: 50-200 μM
Protocol: (§5) MDA231-WT and AsPC1 ells were seeded into 6-well plates at a density of 4×10^5/2 ml of RPMI medium per well and grown overnight. Next day cells were treated with GIPC inhibitor peptides in a time dependent (48 h-96 h) and dose dependent manner (50-200 μM). After treatment with definite time, cells were extensively washed with PBS and tested with the Annexin V-FITC Apoptosis Detection Kit (Biovision, Cat. No. #K101-100) per the manufacturer's instructions.

[9] = system: MDA-MB-231-WT cells; assay: MTS cell viability assay (Example 7); assay type: cell-based; conditions: for reduced cell viability observed: 50-200 μM
Protocol: as §3

[10] = system: AsPC1 cells; assay: Apoptosis assay (annexin/PI); assay type: cell-based, human; conditions: for reduction in live AsPC1 cells / apoptosis induced: within 48 h; for induction of apoptosis: 50-200 μM
Protocol: as §5

[11] = system: IGF-1R; assay: Western blot of IGF-1R in AsPC1 cells; assay type: cell-based, human; conditions: 48 hours; 50, 100, 200 μM
Protocol: as §1, §2

[12] = system: MD-MBA-231-WT cells; assay: Breast tumor growth model, intratumoral injections; assay type: in vivo, female SCID mice
Protocol: as §4

Row | Compound | EGFR expression compared to control peptides [1] | IGF-1R expression compared to control peptides [2] | red fluorescence (co-localization of GIPC and IGF-1R) compared to control [3] | reduced cell viability observed [4] | interaction between IGF-1R and GIPC [5] | protein levels of IGF-IR [5] | EGFR expression compared to control peptides [6] | pancreatic tumor growth over time compared to control peptides [7] | apoptosis induced ([8]; 50 μM) [%] | apoptosis induced ([8]; 200 μM) [%] | induction of apoptosis [8] | reduced cell viability observed [9] | reduction in live AsPC1 cells ([10]; 50 μM) [%] | reduction in live AsPC1 cells ([10]; 200 μM) [%] | induction of apoptosis [10] | IGF-1R expression compared to control peptides [11] | also measured
1 | CCCCCCCCCCCCCC(=O)N1CCC[C@H]1C(=O)N[C@@H](CO)C(=O)N[C@@H](CCC(N)=O)C(=O)N[C@@H](CO)C(=O)N[C@@H](CO)C(=O)N[C@@H](CO)C(=O)N[C@@H](CCC(=O)O)C(=O)N[C@@H](C)C(=O)O [CR1023, My-PSQSSSEA] (Myristoyl-PSQSSSEA-OH; C-terminus assumed) | reduced | reduced | reduced red fluorescence | Reduced cell viability | interfere with the interaction | reduced protein levels of IGF-IR significantly | reduced | significantly suppressed the pancreatic tumor growth | ~30 | ~35 | significant induction of apoptosis | Reduced cell viability | ~78 | ~62 | significant induction of apoptosis | reduced | –
2 | CCCCCCCCCCCCCC(=O)N1CCC[C@H]1C(=O)N[C@@H](CO)C(=O)N[C@@H](CCC(N)=O)C(=O)N[C@@H](CO)C(=O)N[C@@H](CCCCNC(=O)c1ccc(Br)cc1)C(=O)N[C@@H](CO)C(=O)N[C@@H](CCCCNC(=O)c1ccc(Br)cc1)C(=O)N[C@@H](C)C(=O)O [CR1166, My-PSQSK(4-Br-ben)SK(4-Br-ben)A] (Myristoyl-PSQSK(Benzoyl(4-Br))SK(Benzoyl(4-Br))A-OH; C-terminus assumed) | reduced | reduced | reduced red fluorescence | Reduced cell viability | interfere with the interaction | reduced protein levels of IGF-IR significantly | reduced | significantly suppressed the pancreatic tumor growth | ~54 | ~61 | significant induction of apoptosis | Reduced cell viability | ~53 | ~35 | significant induction of apoptosis | reduced | cell viability reduced more compared to CR1023 ([4]; 50 μM): ~50%; cell viability reduced more compared to CR1023 ([4]; 100 μM): ~45%; cell viability reduced more compared to CR1023 ([4]; 200 μM): ~35%; EGFR expression in tumor compared to control CR2055 ([7]; pancreatic tumors): significant reduction; IGF-1R expression in tumor compared to control CR2055 ([7]; pancreatic tumors): significant reduction; tumor regression as compared to control DMSO-PBS-treated mice ([7]; pancreatic tumors): ~4.8 times; tumor regression as compared to mice treated with CR1023 ([7]; pancreatic tumors): ~2.3 times; tumor regression as compared to mice treated with CR2055 ([7]; pancreatic tumors): ~3.8 times; tumor regression as compared to mice treated with CR2059 ([7]; pancreatic tumors): ~3.9 times; breast tumor regression as compared to mice treated with CR1023 ([12]; CR1023 data not shown): ~1.4 times; IGF-1R expression in tumor compared to CR2059 ([12]; breast tumors): significant reduction; breast tumor growth over time compared to controls ([12]; intratumoral, alternate days): significantly suppressed breast tumor growth; breast tumor regression as compared to control DMSO-PBS-treated mice ([12]; mouse, in vivo): ~2.7 times; breast tumor regression as compared to mice treated with CR2055 ([12]; mouse, in vivo): ~2.1 times; breast tumor regression as compared to mice treated with CR2059 ([12]; mouse, in vivo): ~2.2 times; cell viability reduced more compared to CR1023 ([9]; at 50 μM, 100 μM, and 200 μM): 30-33%; apoptosis induced ([10]; 50 μM): ~47%; apoptosis induced ([10]; 200 μM): ~65%
